These results are taken from patent US10287255B2, “Compounds as histone deacetylase 6 inhibitors and pharmaceutical compositions comprising the same” (CHONG KUN DANG PHARMACEUTICAL CORP., priority 2014, dated 2019).

As a reminder, the IC50 is the point on the concentration scale where inhibition reaches its midpoint.

One assay deals with T1, human recombinant HDAC1 (Homo sapiens, UniProt Q13547).
T1 construct: purchased Enzo Life Science BML-SE456
Briefly: HDAC1 enzyme activity inhibition assay (in vitro, fluorimetric). Conditions: human recombinant HDAC1, fluorimetric kit, 30° C. 60 minutes. The class given is biochemical. A digest of the protocol:
(§1)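 IC50 values derive from fluorescence (Ex 360, Em 460) after developer treatment (30 min) of reactions of recombinant human HDAC1 or HDAC6 with 10 μM Fluor de Lys-SIRT1 substrate (60 min, 30 °C). Compounds were serially diluted 5-fold; 0.3 μg enzyme was used for HDAC1, with HDAC6 tested identically.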

The target in the next assay is T2, human recombinant HDAC6 (Homo sapiens, UniProt Q9UBN7).
T2 construct: purchased Calbiochem 382180
T2 sequence (Q9UBN7 1-1215): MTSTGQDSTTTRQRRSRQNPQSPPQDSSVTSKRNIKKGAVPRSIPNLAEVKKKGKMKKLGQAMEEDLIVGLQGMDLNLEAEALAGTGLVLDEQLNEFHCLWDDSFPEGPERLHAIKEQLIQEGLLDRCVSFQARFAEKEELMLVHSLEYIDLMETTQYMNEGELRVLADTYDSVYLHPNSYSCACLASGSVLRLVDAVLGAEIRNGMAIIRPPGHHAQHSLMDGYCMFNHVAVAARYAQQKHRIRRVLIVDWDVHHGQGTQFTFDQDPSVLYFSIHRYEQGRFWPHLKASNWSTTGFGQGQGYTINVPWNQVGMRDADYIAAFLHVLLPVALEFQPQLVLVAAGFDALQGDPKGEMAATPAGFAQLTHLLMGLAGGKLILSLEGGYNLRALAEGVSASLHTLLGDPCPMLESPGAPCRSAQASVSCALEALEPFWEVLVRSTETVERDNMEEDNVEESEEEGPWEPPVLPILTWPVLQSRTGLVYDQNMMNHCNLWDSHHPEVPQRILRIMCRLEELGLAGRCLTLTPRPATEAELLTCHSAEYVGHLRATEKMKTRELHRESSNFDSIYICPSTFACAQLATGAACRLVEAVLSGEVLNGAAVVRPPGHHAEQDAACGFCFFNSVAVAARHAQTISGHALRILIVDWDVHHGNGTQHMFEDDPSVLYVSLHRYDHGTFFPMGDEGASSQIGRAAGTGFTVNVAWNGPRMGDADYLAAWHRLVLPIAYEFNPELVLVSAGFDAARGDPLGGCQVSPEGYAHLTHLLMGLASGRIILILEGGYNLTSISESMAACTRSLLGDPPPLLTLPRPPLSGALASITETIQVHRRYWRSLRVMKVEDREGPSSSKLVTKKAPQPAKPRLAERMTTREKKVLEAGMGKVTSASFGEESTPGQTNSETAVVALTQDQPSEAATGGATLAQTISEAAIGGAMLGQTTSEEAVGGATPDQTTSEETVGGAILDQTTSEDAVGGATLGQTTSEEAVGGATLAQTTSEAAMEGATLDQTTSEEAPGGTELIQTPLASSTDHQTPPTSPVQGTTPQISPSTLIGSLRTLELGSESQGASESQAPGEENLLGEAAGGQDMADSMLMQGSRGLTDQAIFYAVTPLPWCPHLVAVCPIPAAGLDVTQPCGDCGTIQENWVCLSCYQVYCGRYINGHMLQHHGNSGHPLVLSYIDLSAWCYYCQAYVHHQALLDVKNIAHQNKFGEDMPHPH
Briefly: HDAC6 enzyme activity inhibition assay (in vitro, fluorimetric). The settings on record: for HDAC6 selectivity (fold): HDAC6 selectivity over HDAC1; for IC50: human recombinant HDAC6, fluorimetric kit, same protocol as HDAC1. The class given is biochemical. An outline of the steps:
as §1

T1 sequence (Q13547 whole entry): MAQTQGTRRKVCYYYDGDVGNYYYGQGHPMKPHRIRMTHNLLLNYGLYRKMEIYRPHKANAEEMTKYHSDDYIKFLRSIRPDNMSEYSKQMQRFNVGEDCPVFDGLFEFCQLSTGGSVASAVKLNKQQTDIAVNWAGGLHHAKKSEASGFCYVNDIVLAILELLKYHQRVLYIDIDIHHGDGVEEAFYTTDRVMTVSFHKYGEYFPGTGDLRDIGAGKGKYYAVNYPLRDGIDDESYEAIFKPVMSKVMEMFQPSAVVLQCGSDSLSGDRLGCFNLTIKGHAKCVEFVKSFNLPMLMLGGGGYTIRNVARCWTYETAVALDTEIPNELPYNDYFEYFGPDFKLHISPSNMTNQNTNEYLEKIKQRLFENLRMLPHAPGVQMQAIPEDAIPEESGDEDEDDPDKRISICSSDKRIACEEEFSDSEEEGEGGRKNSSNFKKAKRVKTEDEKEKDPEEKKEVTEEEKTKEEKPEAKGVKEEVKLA

For the compound `CCN(CC)Cc1cccc(CN2[C@H](C)CN(Cc3ccc(C(=O)NO)cc3)C[C@@H]2C)c1` [Compound 426, 4-(((3R,5S)-4-(3-((diethylamino)methyl)benzyl)-3,5-dimethylpiperazin-1-yl)methyl)-N-hydroxybenzamide], the IC50 at human recombinant HDAC1 was 5000 nM; at human recombinant HDAC6, 142 nM. Moreover, the “HDAC6 selectivity (fold)” value on human recombinant HDAC6 amounted to 35 fold.

On to `C[C@@H]1CN(Cc2ccc(C(=O)NO)cc2)C[C@H](C)N1Cc1ccccc1C1=CCOCC1` [Compound 332, 4-(((3R,5S)-4-(2-(3,6-dihydro-2H-pyran-4-yl)benzyl)-3,5-dimethylpiperazin-1-yl)methyl)-N-hydroxybenzamide], for which, on human recombinant HDAC1, the 50% inhibitory concentration (IC50) turned out to be 21900 nM. On human recombinant HDAC6, the “HDAC6 selectivity (fold)” value is 207 fold and the IC50 was 106 nM.

On to `CCN(CC)Cc1cccc(CN2C[C@@H](C)N(Cc3ccc(C(=O)NO)cc3)[C@@H](C)C2)c1` [Compound 478, 4-(((2S,6R)-4-(3-((diethylamino)methyl)benzyl)-2,6-dimethylpiperazin-1-yl)methyl)-N-hydroxybenzamide], for which the results for the IC50 on human recombinant HDAC1 and at human recombinant HDAC6 were 6570 nM and 640 nM, respectively. The “HDAC6 selectivity (fold)” value on human recombinant HDAC6 came to 10 fold.

Turning to `C[C@@H]1CN(Cc2ccc(C(=O)NO)cc2)C[C@H](C)N1Cc1cc(C(F)(F)F)cc(C(F)(F)F)c1` [Compound 214, 4-(((3R,5S)-4-(3,5-bis(trifluoromethyl)benzyl)-3,5-dimethylpiperazin-1-yl)methyl)-N-hydroxybenzamide], the figures for the IC50 on human recombinant HDAC1 and on human recombinant HDAC6 were more than 10000 nM and 165 nM, respectively. Moreover, the “HDAC6 selectivity (fold)” value on human recombinant HDAC6 is on record as more than 61 fold.

For `C[C@@H]1CN(C(=O)c2cccc(-c3ccoc3)c2)C[C@H](C)N1Cc1ccc(C(=O)NO)cc1` [Compound 258, 4-(((2S,6R)-4-(3-(furan-3-yl)benzoyl)-2,6-dimethylpiperazin-1-yl)methyl)-N-hydroxybenzamide], the IC50 on human recombinant HDAC1 amounted to 1700 nM. Besides, at human recombinant HDAC6, the “HDAC6 selectivity (fold)” value is given as 7 fold and the IC50 came out at 258 nM.

Take `C[C@@H]1CN(C(=O)c2cccc(-c3cccnc3)c2)C[C@H](C)N1Cc1ccc(C(=O)NO)cc1` [Compound 261, 4-(((2S,6R)-2,6-dimethyl-4-(3-(pyridin-3-yl)benzoyl)piperazin-1-yl)methyl)-N-hydroxybenzamide]: the IC50 at human recombinant HDAC1 stood at 2000 nM. Further, at human recombinant HDAC6, the “HDAC6 selectivity (fold)” value turned out to be 3 fold and the IC50 was 577 nM.

Take `CCCCN(C(=O)N1C[C@@H](C)N(Cc2ccc(C(=O)NO)cc2)[C@@H](C)C1)c1ccccc1` [Compound 198, (3R,5S)-N-butyl-4-(4-(hydroxycarbamoyl)benzyl)-3,5-dimethyl-N-phenylpiperazine-1-carboxamide]: the IC50 is 12200 nM at human recombinant HDAC1 and 241 nM at human recombinant HDAC6. For the same compound, the “HDAC6 selectivity (fold)” value on human recombinant HDAC6 was 51 fold.

On to `CC(c1ccccc1)N1C[C@@H](C)N(Cc2ccc(C(=O)NO)cc2)[C@@H](C)C1` (stereo partly drawn) [Compound 220, 4-(((2S,6R)-2,6-dimethyl-4-(1-phenylethyl)piperazin-1-yl)methyl)-N-hydroxybenzamide], for which, at human recombinant HDAC1, the IC50 was 15900 nM. Also, at human recombinant HDAC6, the “HDAC6 selectivity (fold)” value was found to be 13 fold and the half-maximal inhibitory concentration (IC50) was determined as 1230 nM.

In the case of `C[C@@H]1CN(Cc2ccc(C(=O)NO)cc2)C[C@H](C)N1Cc1cccc(CN2CCN(Cc3ccccc3)CC2)c1` [Compound 385, 4-(((3R,5S)-4-(3-((4-benzylpiperazin-1-yl)methyl)benzyl)-3,5-dimethylpiperazin-1-yl)methyl)-N-hydroxybenzamide], the IC50 on human recombinant HDAC1 was more than 10000 nM. Further, on human recombinant HDAC6, the “HDAC6 selectivity (fold)” value is listed as more than 53 fold and the IC50 was found to be 189 nM.

`C[C@@H]1CN(Cc2ccc(C(=O)NO)cc2)C[C@H](C)N1C(=O)c1ccccc1-c1ccco1` [Compound 283, 4-(((3R,5S)-4-(2-(furan-2-yl)benzoyl)-3,5-dimethylpiperazin-1-yl)methyl)-N-hydroxybenzamide]: the IC50 on human recombinant HDAC1 is 3500 nM; at human recombinant HDAC6, 23 nM. Besides, the “HDAC6 selectivity (fold)” value at human recombinant HDAC6 is 154 fold.

Take `C[C@@H]1CN(Cc2ccc(C(=O)NO)cc2)C[C@H](C)N1Cc1ccc(CN2CCN(Cc3ccccc3)CC2)cc1` [Compound 413, 4-(((3R,5S)-4-(4-((4-benzylpiperazin-1-yl)methyl)benzyl)-3,5-dimethylpiperazin-1-yl)methyl)-N-hydroxybenzamide]: the IC50 at human recombinant HDAC1 was more than 10000 nM. In addition, on human recombinant HDAC6, the “HDAC6 selectivity (fold)” value is on record as more than 769 fold and the IC50 worked out at 13 nM.

Turning to `C[C@@H]1CN(Cc2ccc(C(=O)NO)cc2)C[C@H](C)N1Cc1cccc(CN2CC[C@@H](F)C2)c1` [Compound 383, 4-(((3R,5S)-4-(3-(((R)-3-fluoropyrrolidin-1-yl)methyl)benzyl)-3,5-dimethylpiperazin-1-yl)methyl)-N-hydroxybenzamide], on human recombinant HDAC1, the IC50 is more than 10000 nM. For the same compound, on human recombinant HDAC6, the “HDAC6 selectivity (fold)” value is more than 102 fold and the IC50 is 98 nM.

In the case of `C[C@@H]1CN(Cc2ccc(C(=O)NO)cc2)C[C@H](C)N1C(=O)Cc1cccc(F)c1` [Compound 222, 4-(((3R,5S)-4-(2-(3-fluorophenyl)acetyl)-3,5-dimethylpiperazin-1-yl)methyl)-N-hydroxybenzamide], the IC50 is 1600 nM at human recombinant HDAC1 and 100 nM on human recombinant HDAC6. For the same compound, the “HDAC6 selectivity (fold)” value at human recombinant HDAC6 turned out to be 16 fold.

As for `COc1ccc(NC(=O)N2C[C@@H](C)N(Cc3ccc(C(=O)NO)cc3)[C@@H](C)C2)cc1` [Compound 165, (3R,5S)-4-(4-(hydroxycarbamoyl)benzyl)-N-(4-methoxyphenyl)-3,5-dimethylpiperazine-1-carboxamide], the IC50 on human recombinant HDAC1 was found to be 1400 nM. Moreover, on human recombinant HDAC6, the “HDAC6 selectivity (fold)” value stood at 2 fold and the IC50 is 560 nM.

For `C[C@@H]1CN(Cc2ccc(C(=O)NO)cc2)C[C@H](C)N1C(=O)Cc1cccc(C(F)(F)F)c1` [Compound 223, 4-(((3R,5S)-3,5-dimethyl-4-(2-(3-(trifluoromethyl)phenyl)acetyl)piperazin-1-yl)methyl)-N-hydroxybenzamide], on human recombinant HDAC1, the IC50 is 900 nM. At human recombinant HDAC6, the “HDAC6 selectivity (fold)” value is 8 fold and the half-maximal inhibitory concentration (IC50) was 118 nM.

As to `C[C@@H]1CN(C(=O)Nc2cccc(-n3cccc3)c2)C[C@H](C)N1Cc1ccc(C(=O)NO)cc1` [Compound 186, (3R,5S)-N-(3-(1 H-pyrrol-1-yl)phenyl)-4-(4-(hydroxycarbamoyl)benzyl)-3,5-dimethylpiperazine-1-carboxamide], the IC50 on human recombinant HDAC1 worked out at 300 nM. For the same compound, at human recombinant HDAC6, the “HDAC6 selectivity (fold)” value turned out to be 65 fold and the 50% inhibitory concentration (IC50) amounted to 5 nM.

For `C[C@@H]1CN(C(=O)Cc2cccc(C3=CCOCC3)c2)C[C@H](C)N1Cc1ccc(C(=O)NO)cc1` [Compound 252, 4-(((2S,6R)-4-(2-(3-(3,6-dihydro-2H-pyran-4-yl)phenyl)acetyl)-2,6-dimethylpiperazin-1-yl)methyl)-N-hydroxybenzamide], the values for the IC50 on human recombinant HDAC1 and at human recombinant HDAC6 were 17500 nM and 221 nM, respectively. For the same compound, on human recombinant HDAC6, the “HDAC6 selectivity (fold)” value is 79 fold.

Turning to `C[C@@H]1CN(Cc2ccc(C(=O)NO)cc2)C[C@H](C)N1C(=O)c1cccc(Cl)c1` [Compound 121, 4-(((3R,5S)-4-(3-chlorobenzoyl)-3,5-dimethylpiperazin-1-yl)methyl)-N-hydroxybenzamide], the IC50 at human recombinant HDAC1 stood at 11800 nM; on human recombinant HDAC6, 29 nM. For the same compound, the “HDAC6 selectivity (fold)” value on human recombinant HDAC6 stood at 407 fold.

As to `C[C@@H]1CN(Cc2ccc(C(=O)NO)cc2)C[C@H](C)N1Cc1cccc(-c2ccncc2)c1` [Compound 345, 4-(((3R,5S)-3,5-dimethyl-4-(3-(pyridin-4-yl)benzyl)piperazin-1-yl)methyl)-N-hydroxybenzamide], the 50% inhibitory concentration (IC50) on human recombinant HDAC1 was 5500 nM. Moreover, on human recombinant HDAC6, the “HDAC6 selectivity (fold)” value stood at 341 fold and the IC50 turned out to be 16 nM.

Take `C[C@@H]1CN(Cc2ccccc2C2=CCC(C)(C)CC2)C[C@H](C)N1Cc1ccc(C(=O)NO)cc1` [Compound 352, 4-(((2S,6R)-4-((4′,4′-dimethyl-2′,3′,4′,5′-tetrahydro-[1,1′-biphenyl]-2-yl)methyl)-2,6-dimethylpiperazin-1-yl)methyl)-N-hydroxybenzamide]: the IC50 on human recombinant HDAC1 came to 13800 nM. For the same compound, on human recombinant HDAC6, the “HDAC6 selectivity (fold)” value was more than 13 fold and the IC50 came to 1060 nM.
